# PMC2639596, “Antimicrobial peptides effectively kill a broad spectrum of Listeria monocytogenes and Staphylococcus aureus strains independently of origin, sub-type, or virulence factor expression” (BMC Microbiology, 2008)
# Read-outs that look alike come from different tables or passages of the source. Bridge positions count the residues as written; N and C are the ends. Ends that are not written are not given here.
# Columns and labels:
# [1] = system: L. monocytogenes and S. aureus; assay: Minimum bactericidal concentration (MBC), plating from MIC wells; type: cell-based, Listeria monocytogenes, Staphylococcus aureus; settings: 99.9% reduction of initial inoculum; 10 μl from wells with no visible growth plated on BHI agar
# Procedure: The strain collection was tested for sensitivity to protamine, plectasin, novicidin, and novispirin G10 by determining their minimal inhibitory concentration (MIC) using a microbroth dilution method. Colonies from a BHI agar plate incubated overnight were suspended in MHB pH 7.4 to a turbidity of 0.11–0.12 at 546 nm (approx. 1.0 × 10^8 CFU/ml) and diluted in MHB to a concentration of 5.0 × 10^5 CFU/ml. 90 μl of bacterial suspension was incubated with 10 μl of peptide solution in polypropylene 96-well plates (Nunc, 442587) for 18–24 h at 37°C. The peptide solutions were made fresh on the day of assay and diluted two-fold. The range of concentrations assayed were 0.031–32 μg/ml for novicidin, 0.125–128 μg/ml for protamine and novispirin G10, and 0.25–256 μg/ml for plectasin. MIC was the lowest peptide concentration at which visual growth was inhibited. The minimum bactericidal concentration (MBC) values were determined by plating l0 μl samples from wells with no visible growth onto BHI agar plates. MBC was the lowest concentration of each peptide of which 99.9% reduction of the initial inoculum was observed.
# [2] = system: Staphylococcus aureus; type: cell-based; settings: radial diffusion, MHB pH 7.4/1% agarose/0.1% glucose, overnight, 37°C
# Procedure: (§1) Experiments were carried out with a collection of 25 Listeria monocytogenes strains (Table 1) and 16 Staphylococcus aureus strains (Table 2) representing different lineages and serotypes (L. monocytogenes), spa types (S. aureus), and origins (food processing environment, food products, and human clinical isolates). Six L. monocytogenes strains were mutants of the EGD strain and were mutated in genes known to be involved in stress tolerance. The S. aureus collection comprised two deletion mutants, strains Sa113/ΔmprF [8] and Sa113/ΔdltA [7], known to be more sensitive to host defense peptides. Two of the S. aureus strains could not immediately be assigned to an existing spa type and we are in the process of acquiring the additional information that is needed to assign a new spa type to them. The strains were obtained from The National Institute of Aquatic Resources and The National Food Institute, Technical University of Denmark, Faculty of Life Sciences, University of Copenhagen, Denmark, Statens Serum Institut, Denmark, University of Würzburg, Germany and Campden Food and Drink Association, United Kingdom. Stock cultures were stored at -80°C in 4% (w/V) glycerol, 0.5% (w/V) glucose, and 2.0% (w/V) skimmed milk powder. The bacteria were grown in Brain Heart Infusion (BHI) broth (Oxoid, CM0225), Tryptone Soy Broth (TSB) (Oxoid, CM129), and cation-adjusted Mueller-Hinton II Broth (MHB) (Becton Dickinson, 212322) adjusted to pH 7.4. To avoid unspecific binding of host defense peptides to plastic ware and agar, all MIC determinations were carried out using polypropylene plastic ware and radial diffusion assays were carried out in MHB supplemented with 1% agarose (Invitrogen, 15510-027) as gelling agent.
# (§2) Protamine was purchased from Sigma (P4020-5G). Plectasin, novicidin, and novispirin G10 were supplied by Novozymes A/S. Recombinant HBD-3 was purchased from PeproTech (300-52).
# (§3) Each strain was tested in two independent trials.
# [3] = system: Listeria monocytogenes; type: cell-based; settings: radial diffusion, MHB pH 7.4/1% agarose/0.1% glucose, overnight, 37°C
# Procedure: as §1, §2, §3
compound,measurement,setting,value
CC[C@H](C)[C@@H]1NC(=O)[C@H](CO)NC(=O)[C@H](CCCCN)NC(=O)[C@@H]2CSSC[C@@H](C(=O)N[C@@H](Cc3ccc(O)cc3)C(=O)O)NC(=O)[C@H](CCCCN)NC(=O)[C@@H]3CSSC[C@H](NC(=O)[C@H](CCC(N)=O)NC(=O)[C@H](CCSC)NC(=O)[C@H](CC(=O)O)NC(=O)[C@H](CC(=O)O)NC(=O)[C@H](CCC(=O)O)NC(=O)[C@H](CC(=O)O)NC(=O)[C@H](Cc4c[nH]c5ccccc45)NC(=O)[C@@H]4CCCN4C(=O)CNC(=O)[C@H](CC(N)=O)NC(=O)[C@@H](NC(=O)CNC(=O)[C@H](Cc4ccccc4)NC(=O)CN)CSSC[C@H](NC(=O)[C@H](Cc4ccc(O)cc4)NC(=O)CNC(=O)CNC(=O)[C@H](CCCCN)NC(=O)[C@H](Cc4ccc(O)cc4)NC(=O)CNC(=O)[C@H](CCCCN)NC1=O)C(=O)N[C@@H](C)C(=O)N[C@@H](CCCCN)C(=O)NCC(=O)NCC(=O)N[C@@H](Cc1ccccc1)C(=O)N[C@@H](C(C)C)C(=O)N3)C(=O)N[C@@H](Cc1c[nH]cn1)C(=O)N[C@@H](CC(N)=O)C(=O)N[C@@H](Cc1c[nH]cn1)C(=O)N2 [plectasin],minimum bactericidal concentrations (MBC),[1],identical to the MICs
"GIINTLQKYYCRVRGGRCAVLSCLPKEEQIGKCSTRGRKCCRRKK (disulfide 11-40, 18-33, 23-41 (inferred)) [HBD-3, human β-defensin 3]",MIC (MEC),"[2]; strain 796, first of two values (two independent trials)",64/64 μg/ml
same,MIC (MEC),"[2]; strain 796, second of two values (two independent trials)",64/64 μg/ml
same,MIC (MEC),"[2]; strain 2148-jvi, first of two values (two independent trials)",32/32 μg/ml
same,MIC (MEC),"[2]; strain 2148-jvi, second of two values (two independent trials)",32/32 μg/ml
same,MIC (MEC),"[2]; strain 8325-4, first of two values (two independent trials)",32/32 μg/ml
same,MIC (MEC),"[2]; strain 8325-4, second of two values (two independent trials)",32/32 μg/ml
same,MIC (MEC),"[2]; strain 14943, first of two values (two independent trials)",32 µg/mL
same,MIC (MEC),"[2]; strain 14943, second of two values (two independent trials)",64 µg/mL
same,MIC (MEC),"[2]; strain B31369, first of two values (two independent trials)",64/64 μg/ml
same,MIC (MEC),"[2]; strain B31369, second of two values (two independent trials)",64/64 μg/ml
same,MIC (MEC),"[2]; strain K3-B2, first of two values (two independent trials)",32 µg/mL
same,MIC (MEC),"[2]; strain K3-B2, second of two values (two independent trials)",64 µg/mL
same,MIC (MEC),"[2]; strain KES 626, first of two values (two independent trials)",32 µg/mL
same,MIC (MEC),"[2]; strain KES 626, second of two values (two independent trials)",64 µg/mL
same,MIC (MEC),"[3]; strain 4446, first of two values (two independent trials)",16/16 μg/ml
same,MIC (MEC),"[3]; strain 4446, second of two values (two independent trials)",16/16 μg/ml
same,MIC (MEC),"[3]; strain 7418, first of two values (two independent trials)",4 µg/mL
same,MIC (MEC),"[3]; strain 7418, second of two values (two independent trials)",8 µg/mL
same,MIC (MEC),"[3]; strain EGD, first of two values (two independent trials)",16/16 μg/ml
same,MIC (MEC),"[3]; strain EGD, second of two values (two independent trials)",16/16 μg/ml
same,MIC (MEC),"[3]; strain La22, first of two values (two independent trials)",16/16 μg/ml
same,MIC (MEC),"[3]; strain La22, second of two values (two independent trials)",16/16 μg/ml
same,MIC (MEC),"[3]; strain La111, first of two values (two independent trials)",8 µg/mL
same,MIC (MEC),"[3]; strain La111, second of two values (two independent trials)",16 µg/mL
same,MIC (MEC),"[3]; strain N53-1, first of two values (two independent trials)",16 µg/mL
same,MIC (MEC),"[3]; strain N53-1, second of two values (two independent trials)",32 µg/mL
same,MIC (MEC),"[3]; strain Scott A, first of two values (two independent trials)",8/8 μg/ml
same,MIC (MEC),"[3]; strain Scott A, second of two values (two independent trials)",8/8 μg/ml
